Here are results for seven compounds from US20240059673A1, “SUBSTITUTED INDOLE COMPOUNDS” (Gilead Sciences, Inc., priority 2020, published 2024).

One assay has as its target T1, TLR8 (Homo sapiens, UniProt Q9NR97).
T1 construct: lymphocytes, monocytes and dendritic cells that express TLR7, TLR8 and TLR9; endogenous in cells; host or cells: cryopreserved human PBMCs from healthy donors
T1 sequence (Q9NR97 27-1041): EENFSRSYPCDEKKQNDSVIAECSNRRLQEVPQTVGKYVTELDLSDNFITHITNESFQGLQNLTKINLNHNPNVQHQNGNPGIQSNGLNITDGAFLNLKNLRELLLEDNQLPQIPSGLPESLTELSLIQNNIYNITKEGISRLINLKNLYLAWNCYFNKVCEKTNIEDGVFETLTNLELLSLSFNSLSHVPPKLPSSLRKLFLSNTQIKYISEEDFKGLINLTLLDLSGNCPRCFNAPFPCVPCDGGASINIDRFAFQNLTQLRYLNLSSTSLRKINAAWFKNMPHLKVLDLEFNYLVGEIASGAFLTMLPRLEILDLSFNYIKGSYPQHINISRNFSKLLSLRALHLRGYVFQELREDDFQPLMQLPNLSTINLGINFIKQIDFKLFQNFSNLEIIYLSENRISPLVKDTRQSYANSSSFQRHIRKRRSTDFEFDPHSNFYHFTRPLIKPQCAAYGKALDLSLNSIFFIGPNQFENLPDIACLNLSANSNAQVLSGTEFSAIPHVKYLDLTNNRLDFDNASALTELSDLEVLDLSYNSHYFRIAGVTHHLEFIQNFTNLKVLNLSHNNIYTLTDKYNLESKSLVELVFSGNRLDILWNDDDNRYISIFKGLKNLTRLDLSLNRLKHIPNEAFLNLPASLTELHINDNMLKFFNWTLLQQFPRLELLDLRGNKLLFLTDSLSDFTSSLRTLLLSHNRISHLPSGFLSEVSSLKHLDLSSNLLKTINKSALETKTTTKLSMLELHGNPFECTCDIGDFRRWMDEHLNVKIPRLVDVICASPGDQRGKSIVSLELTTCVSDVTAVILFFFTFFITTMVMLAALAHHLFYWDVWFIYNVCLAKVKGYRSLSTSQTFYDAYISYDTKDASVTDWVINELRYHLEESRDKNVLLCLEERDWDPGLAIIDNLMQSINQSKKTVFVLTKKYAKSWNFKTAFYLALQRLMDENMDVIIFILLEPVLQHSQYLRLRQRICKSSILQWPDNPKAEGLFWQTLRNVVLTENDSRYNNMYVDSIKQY
The assay is described as follows: TLR8 human PBMC cell-based assay. To be noted: human PBMCs; TLR8 agonist Compound A 800 nM; 6 hours; cytokines (TNFa and IL12p40) in supernatant; Table 2; read-out: TLR-8 EC50. As to the method:
TLR8 Human Peripheral Blood Mononuclear Cell (PBMC) Cell-Based Assay
Cryopreserved human PBMCs from healthy donors were thawed and resuspended in RPMI-1640 media with L-glutamine (Corning) supplemented with 10% Fetal Bovine Serum (Hyclone) and 1× Penicillin-Streptomycin (Corning). After counting, the cell density was adjusted to 2 million cells/ml and incubated for 1 hour at 37° C., 5% CO2 for recovery. Following the recovery, the cells were plated by adding 50p per well (100,000 cells) to 384-well cell culture plates (Greiner) containing 250 nl of test antagonists in 100% DMSO per well, in a 10 points dose response in quadruplicates. PBMCs were incubated in the presence of antagonists for one hour at 37° C., 5% CO2 before being stimulated with TLR8 agonist. Compound A (Gilead Sciences, U.S. Pat. No. 10,285,990) was used as the TLR8 agonist at a final concentration of 800 nM. PBMCs were incubated in the presence of antagonist and the TLR8 agonist for an additional 6 hours at 37° C., 5% CO2. At the end of the incubation, the cell culture plates were centrifuged at 500 g for 5 min, and the cell culture supernatant was collected. The level of cytokines (TNFa and IL12p40) in the supernatant was measured by electrochemiluminescence immunoassays (Mesoscale Discovery) following manufacturer's recommended protocols. The level of cytokine measured was plotted against the antagonist concentration and fitted to a sigmoidal function to determine the EC50, which are shown below in Table 2.

For assay [1], the target named is cloned hERG potassium channel (Homo sapiens, UniProt Q12809). Briefly: hERG FASTPatch assay (QPatch patch clamp). Format: cell-based. To be noted: hERG stably expressed in cells; 1, 3, 10 and 30 uM; room temperature; Table 3. As to the method:
Human Ether-à-go-go-Related Gene (hERG) Assay
The FASTPatch® Assay (Charles River) was used to examine the in vitro effects of the compounds provided herein on the cloned hERG potassium channel encoded by the KCNHI2 gene and stably expressed in ITEK293T cells. Vehicle, test and control article formulations were prepared by diluting DMSO stock solutions in TIB-PS (HEPES-buffered physiological saline solution) and were delivered to cells via the QPatch robot pipetting system to a final concentration of 0.3% DMSO. Test compound final concentrations of 1, 3, 10 and 30 uM were applied to cells (n≥3, where n=the number of cells/concentration) in ascending order in at least three minute intervals separated by solution exchange. The positive control, 50 nM cisparide, was applied in the same manner. Cell membrane currents were recorded at room temperature with up to 48 parallel patch clamp amplifiers in the QPatch HT® or QPatch HTX® system, and only cells with validated whole-cell recordings (seal resistance ≥200 MQ and leak current ≤25% channel current) were used. Onset and block of hERG current was measured using a stimulus voltage pattern consisting of a 500 ms prepulse to −40 mV, a 2-second activating pulse to +40 mV, followed by a 2-second test pulse to −40 mV. The pulse pattern was repeated continuously at 10-second intervals from a holding potential of −80 mV. % Block={1−1/[1+([Test]/IC50)^N]}*100% Where [Test] is the concentration of test article, IC50 is the concentration of the test article producing half-maximal inhibition, N is the Hill coefficient and % Block is the percentage of current inhibited at each concentration of the test article. Nonlinear least squares fits will be solved with the Solver add-in for Excel 2000 or later (Microsoft, Redmon, WA). TurboSol analysis for test compound solubility was performed for each concentration tested using a Nephelostar reader measuring light scatter from a 635 nm laser source. Based on validation experiments, light scatter above four times the background level was considered an indication of the presence of particles in suspension.
The hERG IC50 values are provided below in Table 3.

As a reminder, the EC50 is the concentration giving half of the maximal effect. One may read the IC50 as the point on the concentration scale where inhibition reaches its midpoint. Read a high IC50 as lower potency.

Sequence of cloned hERG potassium channel (Q12809 whole entry): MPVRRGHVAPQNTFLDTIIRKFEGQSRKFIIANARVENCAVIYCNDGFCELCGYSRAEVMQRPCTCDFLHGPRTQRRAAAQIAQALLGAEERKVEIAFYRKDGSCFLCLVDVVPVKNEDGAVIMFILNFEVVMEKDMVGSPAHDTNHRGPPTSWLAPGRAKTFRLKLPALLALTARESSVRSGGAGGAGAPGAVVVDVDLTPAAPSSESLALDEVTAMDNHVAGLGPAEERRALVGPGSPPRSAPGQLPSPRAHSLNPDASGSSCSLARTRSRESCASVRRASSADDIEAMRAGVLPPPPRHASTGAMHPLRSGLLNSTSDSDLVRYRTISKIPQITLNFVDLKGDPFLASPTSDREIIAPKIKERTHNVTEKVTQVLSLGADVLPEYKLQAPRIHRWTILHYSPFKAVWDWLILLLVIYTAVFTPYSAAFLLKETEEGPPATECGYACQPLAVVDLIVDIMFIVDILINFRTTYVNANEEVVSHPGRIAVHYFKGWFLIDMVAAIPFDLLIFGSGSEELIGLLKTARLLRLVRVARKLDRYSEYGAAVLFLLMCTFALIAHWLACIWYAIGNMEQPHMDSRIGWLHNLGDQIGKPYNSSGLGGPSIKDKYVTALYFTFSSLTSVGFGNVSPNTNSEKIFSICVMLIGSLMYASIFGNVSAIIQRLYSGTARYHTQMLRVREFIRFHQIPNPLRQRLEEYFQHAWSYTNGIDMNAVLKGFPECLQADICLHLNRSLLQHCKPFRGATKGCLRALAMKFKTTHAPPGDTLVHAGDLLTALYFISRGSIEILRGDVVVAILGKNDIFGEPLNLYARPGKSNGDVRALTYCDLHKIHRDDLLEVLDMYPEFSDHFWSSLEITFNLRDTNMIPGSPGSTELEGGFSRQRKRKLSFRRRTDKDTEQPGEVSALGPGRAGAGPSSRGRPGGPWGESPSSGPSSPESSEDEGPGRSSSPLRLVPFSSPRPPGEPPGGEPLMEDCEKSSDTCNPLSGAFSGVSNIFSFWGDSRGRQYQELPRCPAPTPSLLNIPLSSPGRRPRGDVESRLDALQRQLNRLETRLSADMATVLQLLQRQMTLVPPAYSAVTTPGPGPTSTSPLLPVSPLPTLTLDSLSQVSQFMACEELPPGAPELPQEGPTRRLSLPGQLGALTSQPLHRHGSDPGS

`Cc1cc(-c2ccc3c(C)c(-c4cnc(N5CCNCC5)nc4)[nH]c3c2)cc(C)n1` [Example 1, 6-(2,6-dimethylpyridin-4-yl)-3-methyl-2-(2-(piperazin-1-yl)pyrimidin-5-yl)-1H-indole]: the EC50 at TLR8 was found to be 318 nM.
As to `Cc1cc(-c2ccc3c(C)c(-c4ccc(N5CCNCC5)nc4)[nH]c3c2)cc(C)n1` [Example 2, 6-(2,6-dimethylpyridin-4-yl)-3-methyl-2-(6-(piperazin-1-yl)pyridin-3-yl)-1H-indole], on TLR8, the EC50 amounted to 307 nM. In addition, in assay [1], it took 7000 nM to reach half-maximal inhibition (IC50).
On to `Cc1c(-c2ccc(N3CCNCC3)nc2)[nH]c2cc(-c3cc(C)c4ncnn4c3)ccc12` [Example 4], for which the EC50 at TLR8 is 18.2 nM. In addition, the IC50 in assay [1] worked out at 15500 nM.
`Cc1c(-c2ccc(N3CCNCC3)nc2)[nH]c2cc(-c3ccc(C#N)c4ncccc34)ccc12` [Example 7]: the concentration giving a half-maximal response (EC50) at TLR8 is 21.5 nM.
As for `CCc1c(-c2ccc(N3CCNCC3)nc2)[nH]c2cc(-c3cc(C)c4ncnn4c3)ccc12` [Example 23], the concentration giving a half-maximal response (EC50) at TLR8 came out at 34.7 nM.
With `Cc1cc(-c2[nH]c3ccc(-c4ccc(N5CCNCC5)nc4)cc3c2C(C)C)cc(C)n1` [Example A, reference compound], half-maximal inhibition in assay [1] (IC50) was put at 4500 nM.
In assay [1], `Cc1cc(-c2[nH]c3ccc(-c4ccc(N5CCNCC5)nc4)cc3c2C(C)C)cn2ncnc12` [Example B, reference compound] came in with an IC50 of 5100 nM.
